Data from ChEMBL document CHEMBL4229543, “Squaramides as novel class I and IIB histone deacetylase inhibitors for topical treatment of cutaneous t-cell lymphoma” (Bioorg Med Chem Lett, 2018).
≈ marks a conversion by molar mass, not a printed value.

Legend:
[1] = Solubility in PG/EtOH (96%) at 30 mg/mL after 24 hrs by UV-spectrometric method; assay type: physicochemical; conditions: PG/EtOH (96%)
[2] = target: T1, NAD-dependent protein deacetylase sirtuin-7 (Homo sapiens, UniProt Q9NRC8); test: Inhibition of SIRT7 (unknown origin)
T1 sequence (Q9NRC8 whole entry): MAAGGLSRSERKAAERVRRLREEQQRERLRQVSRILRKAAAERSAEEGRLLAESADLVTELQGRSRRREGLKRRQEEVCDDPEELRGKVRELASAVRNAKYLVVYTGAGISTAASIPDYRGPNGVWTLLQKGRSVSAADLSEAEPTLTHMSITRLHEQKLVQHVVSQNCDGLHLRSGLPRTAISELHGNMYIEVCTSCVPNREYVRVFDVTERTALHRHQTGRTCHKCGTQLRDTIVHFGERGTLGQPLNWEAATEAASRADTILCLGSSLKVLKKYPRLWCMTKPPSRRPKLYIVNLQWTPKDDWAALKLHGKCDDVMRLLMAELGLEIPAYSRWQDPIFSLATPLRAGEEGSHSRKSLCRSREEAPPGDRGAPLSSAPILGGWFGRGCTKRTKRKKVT

[3] = Solubility in pH 7.4 phosphate buffer solution at 100 uM after 24 hrs by HPLC method; assay type: physicochemical
[4] = target: T2, NAD-dependent protein deacetylase sirtuin-1 (Homo sapiens, UniProt Q96EB6); test: Inhibition of human recombinant SIRT1 using fluorogenic HDAC substrate after 20 mins by fluorimetrc method
T2 sequence (Q96EB6 whole entry): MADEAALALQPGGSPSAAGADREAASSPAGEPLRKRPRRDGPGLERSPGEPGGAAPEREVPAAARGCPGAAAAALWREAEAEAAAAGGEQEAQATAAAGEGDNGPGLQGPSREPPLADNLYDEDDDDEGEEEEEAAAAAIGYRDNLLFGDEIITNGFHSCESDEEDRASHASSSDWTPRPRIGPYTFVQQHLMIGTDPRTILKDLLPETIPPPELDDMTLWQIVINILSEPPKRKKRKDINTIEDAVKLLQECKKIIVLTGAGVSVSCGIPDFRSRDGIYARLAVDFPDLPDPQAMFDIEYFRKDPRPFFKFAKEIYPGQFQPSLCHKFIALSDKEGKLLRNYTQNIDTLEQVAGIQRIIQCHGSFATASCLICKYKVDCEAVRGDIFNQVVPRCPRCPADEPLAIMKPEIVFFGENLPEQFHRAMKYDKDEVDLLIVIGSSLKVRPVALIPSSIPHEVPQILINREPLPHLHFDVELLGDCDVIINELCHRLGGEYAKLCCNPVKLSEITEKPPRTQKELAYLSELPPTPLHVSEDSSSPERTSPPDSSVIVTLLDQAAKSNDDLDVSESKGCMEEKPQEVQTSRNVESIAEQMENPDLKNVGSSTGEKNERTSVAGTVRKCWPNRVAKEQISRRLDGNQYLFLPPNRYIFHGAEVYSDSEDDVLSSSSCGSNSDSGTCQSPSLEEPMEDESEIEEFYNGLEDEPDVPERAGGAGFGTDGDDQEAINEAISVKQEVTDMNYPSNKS

[5] = system: HuT78; test: Pro-apoptotic activity in human HUT78 cells after 18 hrs by caspase-Glo 3/7 assay; assay type: functional, cell-based; conditions: HuT78, 18 h
[6] = Clearance in human hepatocytes assessed per million cells at 1 uM after 5 to 90 mins by LC-MS/MS analysis; assay type: ADME, cell-based, Hepatocyte; conditions: read-out: CLH
[7] = target: T3, NAD-dependent protein deacetylase sirtuin-3, mitochondrial (Homo sapiens, UniProt Q9NTG7); test: Inhibition of human recombinant SIRT3 using fluoro-lysine sirtuin 2 deacetylase substrate after 45 mins by fluorimetrc method
T3 sequence (Q9NTG7 whole entry): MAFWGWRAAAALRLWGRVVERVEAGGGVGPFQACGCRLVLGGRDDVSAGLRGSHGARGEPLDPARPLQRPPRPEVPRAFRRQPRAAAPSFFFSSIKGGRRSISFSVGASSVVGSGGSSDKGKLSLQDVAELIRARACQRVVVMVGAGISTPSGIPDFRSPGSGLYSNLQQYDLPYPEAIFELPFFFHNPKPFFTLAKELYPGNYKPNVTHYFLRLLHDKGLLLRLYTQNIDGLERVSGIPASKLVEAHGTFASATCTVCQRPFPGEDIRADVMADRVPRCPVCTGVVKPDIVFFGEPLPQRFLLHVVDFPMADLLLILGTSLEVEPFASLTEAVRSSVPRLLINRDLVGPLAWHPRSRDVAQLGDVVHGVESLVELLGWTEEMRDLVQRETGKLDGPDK

[8] = target: T4, NAD-dependent protein deacetylase sirtuin-2 (Homo sapiens, UniProt Q8IXJ6); test: Inhibition of human recombinant SIRT2 using fluoro-lysine sirtuin 2 deacetylase substrate after 60 mins by fluorimetrc method
T4 sequence (Q8IXJ6 whole entry): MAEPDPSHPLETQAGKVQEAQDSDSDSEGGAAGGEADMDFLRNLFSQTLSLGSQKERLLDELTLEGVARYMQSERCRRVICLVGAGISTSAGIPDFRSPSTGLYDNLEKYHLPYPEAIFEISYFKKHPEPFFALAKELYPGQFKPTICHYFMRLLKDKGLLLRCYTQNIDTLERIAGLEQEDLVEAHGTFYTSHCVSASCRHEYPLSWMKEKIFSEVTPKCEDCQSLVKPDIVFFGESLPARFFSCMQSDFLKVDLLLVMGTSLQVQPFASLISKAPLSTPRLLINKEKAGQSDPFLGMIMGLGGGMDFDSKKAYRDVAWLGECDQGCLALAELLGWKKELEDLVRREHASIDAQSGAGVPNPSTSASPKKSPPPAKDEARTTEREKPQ

[9] = target: Histone deacetylase 5 (Homo sapiens, UniProt Q9UQL6); test: Inhibition of human recombinant HDAC5 using fluorogenic HDAC substrate class 2a after 30 mins by fluorimetrc method
[10] = target: T5, Polyamine deacetylase HDAC10 (Homo sapiens, UniProt Q969S8); test: Inhibition of human recombinant HDAC10 using fluorogenic HDAC substrate after 45 mins by fluorimetrc method
T5 sequence (Q969S8 whole entry): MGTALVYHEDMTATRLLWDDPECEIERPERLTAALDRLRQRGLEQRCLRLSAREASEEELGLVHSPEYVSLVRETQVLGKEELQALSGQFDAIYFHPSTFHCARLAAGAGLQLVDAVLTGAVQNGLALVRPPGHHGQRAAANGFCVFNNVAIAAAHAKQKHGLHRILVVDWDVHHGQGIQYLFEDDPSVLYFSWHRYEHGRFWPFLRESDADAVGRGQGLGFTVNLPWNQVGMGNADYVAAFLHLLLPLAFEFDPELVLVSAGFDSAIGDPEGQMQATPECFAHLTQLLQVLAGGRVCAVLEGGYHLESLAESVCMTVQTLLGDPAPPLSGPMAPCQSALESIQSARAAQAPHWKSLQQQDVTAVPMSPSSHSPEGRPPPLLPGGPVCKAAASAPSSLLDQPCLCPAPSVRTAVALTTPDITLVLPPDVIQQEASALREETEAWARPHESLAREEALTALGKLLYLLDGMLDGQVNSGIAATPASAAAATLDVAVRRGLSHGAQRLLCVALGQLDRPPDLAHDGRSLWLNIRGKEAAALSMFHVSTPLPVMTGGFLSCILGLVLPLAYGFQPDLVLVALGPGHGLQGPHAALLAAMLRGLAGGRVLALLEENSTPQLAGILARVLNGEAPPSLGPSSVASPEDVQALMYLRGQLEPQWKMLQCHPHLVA

[11] = target: Histone deacetylase 9 (Homo sapiens, UniProt Q9UKV0); test: Inhibition of human recombinant HDAC9 using fluorogenic HDAC substrate class 2a after 30 mins by fluorimetrc method
Sequence of Histone deacetylase 9 (Q9UKV0 whole entry): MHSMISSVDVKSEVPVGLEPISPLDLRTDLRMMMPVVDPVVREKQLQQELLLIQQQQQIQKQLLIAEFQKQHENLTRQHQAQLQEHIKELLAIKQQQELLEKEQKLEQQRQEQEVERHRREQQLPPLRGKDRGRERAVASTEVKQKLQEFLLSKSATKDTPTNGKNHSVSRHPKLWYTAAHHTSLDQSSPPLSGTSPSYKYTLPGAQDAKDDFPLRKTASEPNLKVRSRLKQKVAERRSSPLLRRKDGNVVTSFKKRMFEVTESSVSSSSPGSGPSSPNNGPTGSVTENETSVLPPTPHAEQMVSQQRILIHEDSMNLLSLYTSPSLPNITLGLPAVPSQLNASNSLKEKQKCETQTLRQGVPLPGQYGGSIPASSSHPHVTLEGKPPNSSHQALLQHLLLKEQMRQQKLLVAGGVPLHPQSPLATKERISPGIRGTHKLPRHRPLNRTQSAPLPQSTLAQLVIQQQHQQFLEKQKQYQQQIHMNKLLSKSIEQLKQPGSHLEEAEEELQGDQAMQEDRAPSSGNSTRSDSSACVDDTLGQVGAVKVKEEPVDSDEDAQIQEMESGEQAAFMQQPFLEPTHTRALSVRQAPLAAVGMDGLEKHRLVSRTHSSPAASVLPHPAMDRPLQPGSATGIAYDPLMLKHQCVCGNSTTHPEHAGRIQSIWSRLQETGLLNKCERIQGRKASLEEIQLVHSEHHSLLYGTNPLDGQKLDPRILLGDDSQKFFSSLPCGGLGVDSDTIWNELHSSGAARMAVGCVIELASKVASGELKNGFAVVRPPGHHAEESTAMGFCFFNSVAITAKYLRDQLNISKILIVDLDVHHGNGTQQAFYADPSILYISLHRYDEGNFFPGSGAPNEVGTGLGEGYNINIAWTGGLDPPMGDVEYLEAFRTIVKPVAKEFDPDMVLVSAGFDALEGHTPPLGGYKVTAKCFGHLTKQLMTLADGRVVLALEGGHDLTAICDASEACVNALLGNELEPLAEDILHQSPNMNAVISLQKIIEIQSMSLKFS

Sequence of Histone deacetylase 5 (Q9UQL6 whole entry): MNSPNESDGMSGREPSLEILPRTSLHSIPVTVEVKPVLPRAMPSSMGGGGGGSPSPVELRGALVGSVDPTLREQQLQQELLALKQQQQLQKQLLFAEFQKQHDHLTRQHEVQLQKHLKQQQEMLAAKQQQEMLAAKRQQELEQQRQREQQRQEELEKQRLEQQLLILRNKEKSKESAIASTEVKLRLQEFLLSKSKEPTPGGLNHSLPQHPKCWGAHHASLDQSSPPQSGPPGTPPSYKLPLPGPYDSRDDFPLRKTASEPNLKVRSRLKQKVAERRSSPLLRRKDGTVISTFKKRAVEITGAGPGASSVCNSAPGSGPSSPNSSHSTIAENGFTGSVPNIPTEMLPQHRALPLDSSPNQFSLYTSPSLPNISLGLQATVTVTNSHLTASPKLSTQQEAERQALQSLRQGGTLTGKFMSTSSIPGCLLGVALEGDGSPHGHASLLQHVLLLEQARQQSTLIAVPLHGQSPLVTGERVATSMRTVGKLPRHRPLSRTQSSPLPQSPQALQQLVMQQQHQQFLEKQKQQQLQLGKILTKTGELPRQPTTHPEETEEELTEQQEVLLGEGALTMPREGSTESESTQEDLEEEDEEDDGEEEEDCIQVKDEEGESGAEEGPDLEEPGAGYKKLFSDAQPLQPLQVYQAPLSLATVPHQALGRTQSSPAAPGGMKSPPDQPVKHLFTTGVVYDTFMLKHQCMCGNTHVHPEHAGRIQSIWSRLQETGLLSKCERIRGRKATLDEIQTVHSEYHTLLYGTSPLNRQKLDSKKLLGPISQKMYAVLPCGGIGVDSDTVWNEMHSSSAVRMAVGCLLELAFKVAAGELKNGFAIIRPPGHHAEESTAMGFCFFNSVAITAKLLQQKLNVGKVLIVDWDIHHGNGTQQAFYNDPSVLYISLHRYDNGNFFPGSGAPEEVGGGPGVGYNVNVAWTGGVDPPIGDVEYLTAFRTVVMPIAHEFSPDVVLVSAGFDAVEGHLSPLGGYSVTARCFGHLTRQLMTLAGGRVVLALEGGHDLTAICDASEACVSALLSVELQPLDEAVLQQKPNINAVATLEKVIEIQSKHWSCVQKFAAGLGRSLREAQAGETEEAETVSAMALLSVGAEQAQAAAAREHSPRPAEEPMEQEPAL

solubility at 24 h [1] | Ki [2] | solubility at 24 h, 100 µM ([3]; phosphate buffer, pH 7.4) | Ki [4] | EC50 [5] | hepatocyte CLint at 1 µM [6] | Ki [7] | Ki [8] | Ki [9] | solubility ([3]; buffer, pH 7.4, 24 h, 100 µM) | Ki [10] | Ki [11] | Structure (SMILES)
20 mM (≈ 6990 µg/mL) | > 10000 nM | 0.069 mM (≈ 24.1 µg/mL) | > 10000 nM | 4.3 nM | 8.5 µL/min/1e6 cells | > 10000 nM | > 10000 nM | – | – | – | – | Cc1[nH]c2ccccc2c1CCNCc1ccc(/C=C/C(=O)NO)cc1 [PANOBINOSTAT]
9.1 mM (≈ 3590 µg/mL) | > 10000 nM | – | > 10000 nM | 6.5 nM | 9.8 µL/min/1e6 cells | > 10000 nM | > 10000 nM | 4.3 nM | > 0.097 mM | 4.4 nM | 5.3 nM | Cn1cc(CNCC2CCN(c3ncc(C(=O)NO)cn3)CC2)c2ccccc21 [QUISINOSTAT]
